Source: PMC11249646, “Small-Molecule Disruptors of the Interaction between Calcium- and Integrin-Binding Protein 1 and Integrin αIIbβ3 as Novel Antiplatelet Agents” (ACS Pharmacology & Translational Science, 2024)

Each molecule was assayed against T1, CIB1 and αIIb interaction (CIB1-GST : F-αIIb peptide) (Homo sapiens, UniProt Q99828) (assay: FP assay, 1536-well qHTS format (primary and confirmatory screen)). Settings: Table S3, confirmatory screen, qHTS curve class; a negative sign marks inhibitory curves.
T1 construct: made in house; host or cells: BL-21 plus RIL cells (E. coli)
T1 sequence (Q99828 1-191): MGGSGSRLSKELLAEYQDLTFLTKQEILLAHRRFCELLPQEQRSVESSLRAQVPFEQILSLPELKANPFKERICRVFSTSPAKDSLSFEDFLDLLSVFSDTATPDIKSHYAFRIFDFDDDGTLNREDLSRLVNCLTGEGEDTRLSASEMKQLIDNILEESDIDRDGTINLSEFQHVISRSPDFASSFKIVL
Assay type: binding

Row | Compound | Curve Class (confirmatory screen)
1 | Cc1ccc(S(=O)(=O)Nc2ccc(Br)cc2C(=O)Nc2nc(-c3ccccc3)cs2)cc1.O=C(O)C(F)(F)F [NCGC00262989-01] | 2.4
2 | Cc1ccc(S(=O)(=O)Nc2cc3c(cc2C(=O)Nc2nc(-c4ccccc4)cs2)OCO3)cc1.O=C(O)C(F)(F)F [NCGC00263702-01] | 4
3 | COc1ccc(-n2ncc3c2CCCC3NC(=O)c2ccccc2Cl)cc1.O=C(O)C(F)(F)F (stereo not drawn) [NCGC00273443-01] | 4
4 | COc1ccc(-n2ncc3c2CCCC3NC(=O)c2ccccc2F)cc1.O=C(O)C(F)(F)F (stereo not drawn) [NCGC00273507-01] | 2.4

Same assay, conditions: Table S3, confirmatory screen; negative = inhibition

Row | Compound | Efficacy (%) (confirmatory screen)
5 | Cc1ccc(S(=O)(=O)Nc2ccc(Br)cc2C(=O)Nc2nc(-c3ccccc3)cs2)cc1.O=C(O)C(F)(F)F [NCGC00262989-01] | 47
6 | Cc1ccc(S(=O)(=O)Nc2cc3c(cc2C(=O)Nc2nc(-c4ccccc4)cs2)OCO3)cc1.O=C(O)C(F)(F)F [NCGC00263702-01] | -44
7 | COc1ccc(-n2ncc3c2CCCC3NC(=O)c2ccccc2Cl)cc1.O=C(O)C(F)(F)F (stereo not drawn) [NCGC00273443-01] | -11
8 | COc1ccc(-n2ncc3c2CCCC3NC(=O)c2ccccc2F)cc1.O=C(O)C(F)(F)F (stereo not drawn) [NCGC00273507-01] | 22

Same assay, conditions: confirmatory screen

Row | Efficacy (%) (confirmatory screen) | Compound
9 | -117 | Cl.Nc1cc(C(F)(F)F)ccc1S [NCGC00262926-01]

Same assay, conditions: confirmatory screen, YES/NO

Row | Confirm? (confirmatory screen) | Compound
10 | YES | Cl.Nc1cc(C(F)(F)F)ccc1S [NCGC00262926-01]

Same assay, conditions: confirmatory screen, qHTS curve class; negative sign = inhibitory curve

Row | Curve Class (confirmatory screen) | Compound
11 | -1.1 | Cl.Nc1cc(C(F)(F)F)ccc1S [NCGC00262926-01]

Same assay, conditions: confirmatory screen; read-out: IC50 [μM] (confirmatory screen)

Row | IC50 [µM] | Compound
12 | 22.4 | Cl.Nc1cc(C(F)(F)F)ccc1S [NCGC00262926-01]

Same assay, conditions: qHTS primary screen hits, Table S2; negative = inhibition

Row | Compound | Efficacy (%)
13 | Cl.Nc1cc(C(F)(F)F)ccc1S [NCGC00262926-01] | -84
14 | Cc1ccc(S(=O)(=O)Nc2ccc(Br)cc2C(=O)Nc2nc(-c3ccccc3)cs2)cc1.O=C(O)C(F)(F)F [NCGC00262989-01] | -26
15 | Cc1ccc(S(=O)(=O)Nc2cc3c(cc2C(=O)Nc2nc(-c4ccccc4)cs2)OCO3)cc1.O=C(O)C(F)(F)F [NCGC00263702-01] | -40
16 | COc1ccc(-n2ncc3c2CCCC3NC(=O)c2ccccc2Cl)cc1.O=C(O)C(F)(F)F (stereo not drawn) [NCGC00273443-01] | -29
17 | COc1ccc(-n2ncc3c2CCCC3NC(=O)c2ccccc2F)cc1.O=C(O)C(F)(F)F (stereo not drawn) [NCGC00273507-01] | -45

Same assay, conditions: qHTS primary screen hits, Table S2; negative sign = inhibitory curve

Row | Compound | Curve Class
18 | Cc1ccc(S(=O)(=O)Nc2cc3c(cc2C(=O)Nc2nc(-c4ccccc4)cs2)OCO3)cc1.O=C(O)C(F)(F)F [NCGC00263702-01] | -2.2

Same assay, conditions: qHTS primary screen hits, Table S2; negative sign = inhibitory curve; several classes where COUNT > 1

Row | Compound | Curve Class
19 | Cl.Nc1cc(C(F)(F)F)ccc1S [NCGC00262926-01] | -1.1
20 | Cc1ccc(S(=O)(=O)Nc2ccc(Br)cc2C(=O)Nc2nc(-c3ccccc3)cs2)cc1.O=C(O)C(F)(F)F [NCGC00262989-01] | -2.4
21 | COc1ccc(-n2ncc3c2CCCC3NC(=O)c2ccccc2Cl)cc1.O=C(O)C(F)(F)F (stereo not drawn) [NCGC00273443-01] | -2.4
22 | COc1ccc(-n2ncc3c2CCCC3NC(=O)c2ccccc2F)cc1.O=C(O)C(F)(F)F (stereo not drawn) [NCGC00273507-01] | -2.2

Same assay, conditions: qHTS primary screen hits, Table S2; read-out: IC50

Row | Compound | IC50 [µM]
23 | Cl.Nc1cc(C(F)(F)F)ccc1S [NCGC00262926-01] | 28.2
24 | Cc1ccc(S(=O)(=O)Nc2ccc(Br)cc2C(=O)Nc2nc(-c3ccccc3)cs2)cc1.O=C(O)C(F)(F)F [NCGC00262989-01] | 20
25 | Cc1ccc(S(=O)(=O)Nc2cc3c(cc2C(=O)Nc2nc(-c4ccccc4)cs2)OCO3)cc1.O=C(O)C(F)(F)F [NCGC00263702-01] | 39.8
26 | COc1ccc(-n2ncc3c2CCCC3NC(=O)c2ccccc2Cl)cc1.O=C(O)C(F)(F)F (stereo not drawn) [NCGC00273443-01] | 25.1
27 | COc1ccc(-n2ncc3c2CCCC3NC(=O)c2ccccc2F)cc1.O=C(O)C(F)(F)F (stereo not drawn) [NCGC00273507-01] | 39.8

The molecules below were run against T2, GST-CIB1 : F-scrambled peptide (Homo sapiens, UniProt Q99828) (assay: FP scrambled-peptide counter screen, 1536-well format). Settings: Table S3, counterscreen, qHTS curve class; a negative sign marks inhibitory curves.
T2 construct: made in house; host or cells: BL-21 plus RIL cells (E. coli)
T2 sequence (Q99828 1-191): T1 sequence (Q99828 1-191)
Assay type: binding

Row | Compound | Curve Class (counterscreen)
28 | COc1ccc(-n2ncc3c2CCCC3NC(=O)c2ccccc2Cl)cc1.O=C(O)C(F)(F)F (stereo not drawn) [NCGC00273443-01] | 4
29 | COc1ccc(-n2ncc3c2CCCC3NC(=O)c2ccccc2F)cc1.O=C(O)C(F)(F)F (stereo not drawn) [NCGC00273507-01] | 4

Same assay, conditions: Table S3, counterscreen; negative = inhibition

Row | Compound | Efficacy (%) (counterscreen)
30 | Cc1ccc(S(=O)(=O)Nc2ccc(Br)cc2C(=O)Nc2nc(-c3ccccc3)cs2)cc1.O=C(O)C(F)(F)F [NCGC00262989-01] | 243
31 | Cc1ccc(S(=O)(=O)Nc2cc3c(cc2C(=O)Nc2nc(-c4ccccc4)cs2)OCO3)cc1.O=C(O)C(F)(F)F [NCGC00263702-01] | 111
32 | COc1ccc(-n2ncc3c2CCCC3NC(=O)c2ccccc2Cl)cc1.O=C(O)C(F)(F)F (stereo not drawn) [NCGC00273443-01] | 0
33 | COc1ccc(-n2ncc3c2CCCC3NC(=O)c2ccccc2F)cc1.O=C(O)C(F)(F)F (stereo not drawn) [NCGC00273507-01] | 13

Same assay, conditions: Table S3, counterscreen; read-out: IC50 [μM] (counterscreen)

Row | Compound | IC50 [µM]
34 | Cc1ccc(S(=O)(=O)Nc2ccc(Br)cc2C(=O)Nc2nc(-c3ccccc3)cs2)cc1.O=C(O)C(F)(F)F [NCGC00262989-01] | 35.5
35 | Cc1ccc(S(=O)(=O)Nc2cc3c(cc2C(=O)Nc2nc(-c4ccccc4)cs2)OCO3)cc1.O=C(O)C(F)(F)F [NCGC00263702-01] | 44.7

Same assay, conditions: counterscreen

Row | Efficacy (%) (counterscreen) | Compound
36 | -35 | Cl.Nc1cc(C(F)(F)F)ccc1S [NCGC00262926-01]

Same assay, conditions: counterscreen, YES/NO

Row | Confirm? (counterscreen) | Compound
37 | YES | Cl.Nc1cc(C(F)(F)F)ccc1S [NCGC00262926-01]

Same assay, conditions: counterscreen, qHTS curve class; negative sign = inhibitory curve

Row | Curve Class (counterscreen) | Compound
38 | -1.4 | Cl.Nc1cc(C(F)(F)F)ccc1S [NCGC00262926-01]

Same assay, conditions: counterscreen; read-out: IC50 [μM] (counterscreen)

Row | IC50 [µM] | Compound
39 | 12.6 | Cl.Nc1cc(C(F)(F)F)ccc1S [NCGC00262926-01]
